Experimental data: patent publication US20120253036A1, “AGENT FOR TREATING FIBROMYALGIA” (priority 2009, published 2012)

Tests used:
[1] = test system: disease animal model of fibromyalgia; assay: Antagonism by 5-HT2C receptor antagonist SB242084 of the action of lorcaserin on reserpine-lowered muscle tenderness threshold; assay type: in vivo, Sprague-Dawley rats
Procedure: Thirty male Sprague-Dawley rats (Japan SLC) were used. […] The other 6 rats were not administered with reserpine and provided for the experiment as a healthy control. The drug efficacy was evaluated 5 days after the final administration of reserpine.
Twenty four reserpine-administered rats were divided into four groups (n=6/group), and the drug was administered to the respective groups in the following manner.
Group 1: 10% β cyclodextrin (vehicle of SB242084)+distilled water (vehicle of lorcaserin)
Group 2: 10% β cyclodextrin+lorcaserin at 3 mg/kg
Group 3: SB242084 at 0.1 mg/kg+lorcaserin at 3 mg/kg
Group 4: SB242084 at 1 mg/kg+lorcaserin at 3 mg/kg SB242084 or the vehicle thereof was administered by intraperitoneal administration, and lorcaserin or the vehicle thereof was orally administered. […] The muscle tenderness threshold was measured 60 minutes after lorcaserin or the vehicle thereof was administered. For the 6 healthy rats, only the muscle tenderness threshold was measured without administering the drug.
All measured values were indicated as an average±standard error. […] A significance level (P) less than 5% was determined as statistical significance (P<0.001 was indicated as ### in the drawing). […] A significance level (P) less than 5% was determined as statistical significance (P<0.001 was indicated as *** in the drawing).

[2] = test system: disease animal model of fibromyalgia; assay: Effect of test drug on lowering of muscle tenderness threshold induced by repeated reserpine administration; assay type: in vivo, Sprague-Dawley rats; conditions: for effect on the lowering of the muscle tenderness threshold induced by reserpine: male rats; for statistical significance of the effect on muscle tenderness threshold vs vehicle: two way ANOVA and Bonferroni
Procedure: (§1) The muscle tenderness threshold was measured according to the method of Schafers et al (Schafers M et al, Pain, 104, 579-588, 2003). A pressure stimulus gradually increasing up to 250 g was applied to the gastrocnemius of the right rear foot of the rat. […] The measurement was performed for three times for each point in time, and the average thereof was taken as a measured value. The cutaneous nociception threshold was measured according to the method of Chaplan et al (Chaplan et al., J Neurosci Methods, 53, 55-63, 1994). The measurement was performed using a series of von Frey filaments differing in thickness, which made it possible to apply a constant pressure. The rats were adapted to a cage for measurement having a wire mesh bottom, and then von Frey filaments (0.42 g, 0.74 g, 1.2 g, 2.1 g, 3.5 g, 6.0 g, 9.3 g, and 15.8 g) were applied to the plantar surface of a right rear foot of the rat until the withdrawal response was caused in the right rear foot or until 6 seconds elapsed without the response. The von Frey filament was applied using an up and down method. That is, a filament having about a medium thickness was applied initially, and when the withdrawal response was observed, a filament having a thickness which is one level lower than the initial filament was applied, and when the response was not observed, a filament having a thickness which is one level higher than the initial filament was applied. The cutaneous nociception threshold at the respective points in time was calculated as a threshold (g) of a foot withdrawal response by using a calculation formula reported by Chaplan et al (Chaplan et al. described above). The influence of reserpine on the muscle tenderness threshold and the threshold of cutaneous nociception was examined according to the following protocol. 24 rats were used for male and female rats respectively. The muscle tenderness threshold and the cutaneous nociception threshold before the reserpine administration (base line) were measured, and then the rats were assigned to any of a vehicle (0.5% aqueous acetic acid) group, a 0.1 mg/kg reserpine group, a 0.3 mg/kg group, and a 1 mg/kg group based on the dose of reserpine (6 rats per group). A vehicle or reserpine was subcutaneously administered to the back of rats of the respective groups once a day for three days. The volume of the vehicle or reserpine was set to 1 ml per a weight of a rat of 1 kg for all groups. On the first, third, fifth, seventh, tenth, fourteenth, and twenty-first days after the final administration of the vehicle or reserpine, the muscle tenderness threshold and the cutaneous nociception threshold were measured for the respective rats.
Male Sprague-Dawley rats (Japan SLC, Hamamatsu, Japan) were used. Thirty rats were used for each drug. As shown in Reference Example 1, reserpine was repeatedly administered at 1 mg/kg once a day for 3 days for 24 rats, thereby causing the lowering of the muscle tenderness threshold and the cutaneous nociception threshold. The other 6 rats were not administered with reserpine and provided for the experiment as a healthy control.
The drug efficacy was evaluated 5 days after the final administration of reserpine for all groups.
In evaluating the respective test drugs (5-HT2C receptor agonists), the muscle tenderness threshold of the rats (24 reserpine-administered rats and 6 healthy rats) before the administration of the test drug was initially measured. The 24 reserpine-administered rats were assigned to 4 groups according to the dose of the test drug. For YM348 or a vehicle thereof, the muscle tenderness threshold was measured 30, 60, and 120 minutes after the administration. For lorcaserin or a vehicle thereof, the muscle tenderness threshold was measured 60, 120, and 240 minutes after the administration. For vabicaserin or a vehicle thereof, the muscle tenderness threshold was measured 30, 60, 120, and 240 minutes after the administration. […]

[3] = test system: disease animal model of fibromyalgia; assay: Effect of drug on reserpine-induced lowering of cutaneous nociception threshold; assay type: in vivo, Sprague-Dawley rats; conditions: 5 days after final reserpine; up to a dose of 10 mg/kg
Procedure: The cutaneous nociception threshold was measured according to the method of Chaplan et al (Chaplan et al., J Neurosci Methods, 53, 55-63, 1994). The measurement was performed using a series of von Frey filaments differing in thickness, which made it possible to apply a constant pressure. The rats were adapted to a cage for measurement having a wire mesh bottom, and then von Frey filaments (0.42 g, 0.74 g, 1.2 g, 2.1 g, 3.5 g, 6.0 g, 9.3 g, and 15.8 g) were applied to the plantar surface of a right rear foot of the rat until the withdrawal response was caused in the right rear foot or until 6 seconds elapsed without the response. The von Frey filament was applied using an up and down method. […] The cutaneous nociception threshold at the respective points in time was calculated as a threshold (g) of a foot withdrawal response by using a calculation formula reported by Chaplan et al (Chaplan et al. described above).
In addition, 5 days after the final administration of reserpine, the effect of diclofenac which is a non-steroidal anti-inflammatory drug on the reserpine-induced lowering of the muscle tenderness threshold and the lowering of cutaneous nociception threshold was measured.

[4] = test system: patients with fibromyalgia; conditions: cited from earlier work; for score of pain symptoms of patients with fibromyalgia compared to a placebo group: Non-Patent Documents 7 to 9; for effectiveness for treating patients with fibromyalgia: literature (Yunus 1989; Goldenberg 1986)
[5] = test system: Male and female Sprague-Dawley rats; assay: Influence of repeated reserpine administration on muscle tenderness threshold; assay type: in vivo; conditions: for time after final administration for which muscle tenderness threshold was statistically significantly lower than vehicle: 1 mg/kg group
Procedure: (§2) Male and female Sprague-Dawley rats (Japan SLC, Hamamatsu, Japan) were used.
as §1, with “The influence of reserpine on the muscle tenderness threshold and the threshold of cutaneous nociception was examined according to the following protocol. 24 rats were used for male and female rats respectively.” left out, “A vehicle or reserpine was subcutaneously administered to the back of rats of the respective groups once a day for three days. The volume of the vehicle or reserpine was set to 1 ml per a weight of a rat of 1 kg for all groups.” left out
(§3) All measured values were indicated as an average±standard error. The statistical significant difference in the measured value at the respective points in time between the reserpine-administered group and the vehicle-administered group was verified by two way ANOVA and a Bonferroni method. A significance level (P) less than 5% was determined as statistical significance (P<0.05 was indicated as * in the drawings).

Male Sprague-Dawley rats = assay: Forced swimming test after repeated reserpine administration (immobility time); assay type: in vivo; conditions: 1 mg/kg s.c. once a day for 3 days
Procedure: Male Sprague-Dawley rats (7-week old, Japan SLC, Hamamatsu, Japan) were used as animals. A forced swimming test was performed by modifying the method of Porsolt (1977) et al in the following manner. Soft wires including a magnet (a diameter of 1 mm and a length of 3 mm) were mounted on both the forelimbs of the animal, and the animals were caused to swim one by one in a cylindrical plastic water tank (a diameter of 20 cm and a height of 45 cm) filled with water (24±1° C.) up to 30 cm depth. […] Each forced swimming test includes a pretest session (15 minutes of swimming) and a test session (5 minutes of swimming) 24 hours after the pretest session, and the immobility time was measured in the test session. […] All of the measured values were indicated as an average±standard error. The statistical significant difference in the measured value at the respective test schedules between the reserpine-administered group and the vehicle-administered group was verified by a Student's t-test. A significance level (P) less than 5% was determined as statistical significance (P<0.05 was indicated as * in the drawings).

[6] = test system: Male and female Sprague-Dawley rats; assay: Influence of repeated reserpine administration on cutaneous nociception threshold (von Frey); assay type: in vivo; conditions: for time after final administration for which cutaneous nociception threshold was statistically significantly lower than vehicle: 1 mg/kg group
Procedure: as §2
as §1, with “The influence of reserpine on the muscle tenderness threshold and the threshold of cutaneous nociception was examined according to the following protocol. 24 rats were used for male and female rats respectively.” left out, “A vehicle or reserpine was subcutaneously administered to the back of rats of the respective groups once a day for three days. The volume of the vehicle or reserpine was set to 1 ml per a weight of a rat of 1 kg for all groups.” left out
as §3

[7] = 0.1, 0.3, 1 mg/kg s.c. once a day for three days, male and female rats, two way ANOVA

Cc1cc2c(cc1Cl)N(C(=O)Nc1ccc(Oc3cccnc3C)nc1)CC2 [SB242084]
antagonistic action against the action of lorcaserin on muscle tenderness threshold ([1]; SB242084 0.1 and 1 mg/kg i.p. 15 min before lorcaserin 3 mg/kg oral, 60 min, Dunnett's test): statistically significant antagonistic action in a dose dependent manner

CCc1cc2c(ccc3cnn(C[C@H](C)N)c32)o1 [YM348, (S)-2-(7-ethyl-1H-furo[2,3-g]indazol-1-yl)-1-methylethylamine]
effect on the lowering of the muscle tenderness threshold induced by reserpine ([2]; 5 days after final reserpine (1 mg/kg s.c. x3 days), oral 0.03, 0.1, 0.3 mg/kg, 30, 60, 120 min after administration): restored the lowering of the muscle tenderness threshold induced by reserpine in a dose dependent manner | statistical significance of the effect on muscle tenderness threshold vs vehicle ([2]; oral, at a dose of 0.1 mg/kg or 0.3 mg/kg): statistically significant

O=C(O)Cc1ccccc1Nc1c(Cl)cccc1Cl [diclofenac]
effect on the reserpine-induced lowering of the muscle tenderness threshold ([2]; 5 days after final reserpine, up to a dose of 10 mg/kg): not restored | effect on the reserpine-induced lowering of cutaneous nociception threshold [3]: not restored

CNCC[C@H](Oc1cccc2ccccc12)c1cccs1 [duloxetine]
score of pain symptoms of patients with fibromyalgia compared to a placebo group [4]: statistically significantly reduces the score of pain symptoms

CC(C)Cc1ccc(C(C)C(=O)O)cc1 (stereo not drawn) [ibuprofen]
effectiveness for treating patients with fibromyalgia [4]: not significantly effective

C[C@H]1CNCCc2ccc(Cl)cc21.Cl [lorcaserin, (1R)-8-chloro-1-methyl-2,3,4,5-tetrahydro-1H-3-benzazepine]
effect on the lowering of the muscle tenderness threshold induced by reserpine vs vehicle group (v+v) ([1]; lorcaserin 3 mg/kg oral + 10% β cyclodextrin i.p., 60 min after administration, Student's t-test): statistically significantly restored the lowering of the muscle tenderness threshold induced by reserpine | effect on the lowering of the muscle tenderness threshold induced by reserpine ([2]; 5 days after final reserpine, oral 0.3, 1, 3 mg/kg, 60, 120, 240 min after administration): restored the lowering of the muscle tenderness threshold induced by reserpine in a dose dependent manner | statistical significance of the effect on muscle tenderness threshold vs vehicle ([2]; oral, at a dose of 1 mg/kg or 3 mg/kg): statistically significant

COc1ccc2cc([C@H](C)C(=O)O)ccc2c1 [naproxen]
effectiveness for treating patients with fibromyalgia [4]: not significantly effective

CC(C)C[C@H](CN)CC(=O)O [pregabalin]
score of pain symptoms of patients with fibromyalgia compared to a placebo group [4]: statistically significantly reduces the score of pain symptoms

COC(=O)[C@H]1[C@H]2C[C@@H]3c4[nH]c5cc(OC)ccc5c4CCN3C[C@H]2C[C@@H](OC(=O)c2cc(OC)c(OC)c(OC)c2)[C@@H]1OC [reserpine]
time after final administration for which muscle tenderness threshold was statistically significantly lower than vehicle ([5]; female rats): 7 days | time after final administration for which muscle tenderness threshold was statistically significantly lower than vehicle ([5]; male rats): 10 days | influence on muscle tenderness threshold ([5]; 1 mg/kg reserpine group): markedly lowered | influence on muscle tenderness threshold [5, 7]: significantly lowered the muscle tenderness threshold | increase in the immobility time in forced swimming test (Male Sprague-Dawley rats; first day after final administration (P=0.625)): not confirmed | increase in the immobility time in forced swimming test (Male Sprague-Dawley rats; third, fifth, seventh and fourteenth days after final administration (P=0.0007, 0.004, <0.0001, 0.0008)): significant increase in the immobility time | time after final administration for which cutaneous nociception threshold was statistically significantly lower than vehicle ([6]; female rats): 14 days | time after final administration for which cutaneous nociception threshold was statistically significantly lower than vehicle ([6]; male rats): 21 days | influence on cutaneous nociception threshold ([6]; 1 mg/kg reserpine group): markedly lowered | influence on cutaneous nociception threshold [6, 7]: significantly lowered the cutaneous nociception threshold

Cl.c1cc2c3c(c1)[C@H]1CCC[C@H]1CN3CCNC2 [vabicaserin, (−)-(9aR,12aS)-4,5,6,7,9,9a,10,11,12,12a-decahydrocyclopenta[c][1,4]diazepino[6,7,1-ij]quinoline]
statistical significance of the effect on muscle tenderness threshold vs vehicle ([2]; dorsal subcutaneous, at a dose of 1 mg/kg or 3 mg/kg): statistically significant | effect on the lowering of the muscle tenderness threshold induced by reserpine ([2]; 5 days after final reserpine, dorsal subcutaneous 0.3, 1, 3 mg/kg, 30, 60, 120, 240 min after administration): restored the lowering of the muscle tenderness threshold induced by reserpine in a dose dependent manner
